Converted amounts (≈) assume the structure as drawn. Read-outs that look alike come from different tables or passages of the source.
Assays:
B. subtilis [1] = test: MIC assay, 2-fold serial dilution in 96-well microtiter plate; type: cell-based, Bacillus subtilis (ATCC 6051)
Protocol: (§1) The outcomes of this in vitro assay test align with the results of the antimicrobial sensitivity test.
(§2) Appendix A (Supplementary File) provides experimental details.
(§3) In 96-well microtiter plates and […] of fresh bacterial culture of a single McFarland unit overnight, a double serial dilution of each compound […] in sterile standard saline were prepared to every single source well. […] The plates were incubated at 37 °C overnight. As an indicator of bacterial growth, […] of p-iodonitrotetrazolium violet (INT) was added to each well and incubated at 37 °C for 30 min. […] The colorless tetrazolidium salt acts as an electron accepter and is reduced to a red colored formazan product by biological activity organisms. Where bacterial growth was inhibited, the solution in the well remained clear after incubation with INT.

S. aureus [2] = test: as above; type: cell-based, Staphylococcus aureus (ATCC 12600)
Protocol: as §1, §2, §3

E. coli [3] = test: as above; type: cell-based, Escherichia coli (ATCC 11775)
Protocol: as §1, §2, §3

P. aeruginosa [4] = test: as above; type: cell-based, Pseudomonas aeuroginosa (ATCC 10145)
Protocol: as §1, §2, §3

B. subtilis [5] = test: Minimum bactericidal concentration (MBC) assay; type: cell-based, Bacillus subtilis
From the text: (§4) The MBC differs from the MIC. […] Unlike the MBC, which leads to mortality, the MIC hinders bacterial growth without causing death.[41] The common expression for MBC is MBC50, signifying the antibiotic concentration that eliminates 50% of the initial bacterial population.[42]

S. aureus [6] = test: Minimum bactericidal concentration (MBC) assay; type: cell-based, Staphylococcus aureus
From the text: as §4

E. coli [7] = test: Minimum bactericidal concentration (MBC) assay; type: cell-based, Escherichia coli
From the text: as §4

P. aeruginosa [8] = test: Minimum bactericidal concentration (MBC) assay; type: cell-based, Pseudomonas aeuroginosa
From the text: as §4

tested bacteria = test: MIC summarised over the tested bacteria (abstract); type: cell-based; conditions: read-out: MIC values
Protocol: as §1, §3

Gram-positive bacteria = test: MBC summarised over Gram-positive bacteria; type: cell-based
From the text: as §4

B. subtilis [9] = test: Modified disk diffusion, inhibition zone; conditions: B. subtilis (G+)
E. coli [10] = test: Modified disk diffusion, inhibition zone; conditions: E. coli (G-)
P. aeruginosa [11] = test: Modified disk diffusion, inhibition zone; conditions: P. aeruginosa (G-)
[12] = tested on: Gram-positive and Gram-negative bacteria (B. subtilis, S. aureus, E. coli, P. aeruginosa); test: Disk diffusion, inhibition zones summarised over the tested bacterial strains; conditions: over the four tested bacterial strains
A. flavus [13] = test: Antifungal MIC assay, 2-fold serial dilution; type: cell-based, Aspergillus flavus
C. albicans [14] = test: Antifungal MIC assay, 2-fold serial dilution; type: cell-based, Candida albicans
E. coli DNA gyrase = target: T1, E. coli DNA gyrase (Escherichia coli, UniProt P0AES6); test: DNA gyrase inhibitory (supercoiling) assay; type: biochemical
T1 construct: purchased Inspiralis
Protocol: (§5) IC50 values were determined using seven different inhibitor concentrations and then calculated using the GraphPad Prism 6.0 software.
All the final compounds were tested for E. coli DNA gyrase inhibitory activity in a supercoiling assay. Activities were determined on streptavidin-coated 96-well microtiter plates from Thermo scientific Pierce. […] After washing off the unbound oligonucleotide, the enzyme test was performed. […] After that, the TF buffer (50 mM NaOAc with pH 5.0, 50 mM NaCl and 50 mM MgCl2) was added to terminate the enzymatic reaction. After additional incubation for 30 min at rt, during which biotin-oligonucleotide-plasmid triplex was formed, the unbound plasmid was washed off using TF buffer and SybrGOLD in T10 buffer (10 mM Tris HCl with pH 8.0 and 1 mM EDTA) was added. […] Initial screening was done at 100 or 10 μM concentration of inhibitors. […] GraphPad Prism software was used to calculate the IC50 values. The result is given as the average value of three independent measurements.

DHFR E. coli = target: T2, DHFR E. coli (Escherichia coli, UniProt P0ABQ4); test: DHFR inhibitory assay; type: biochemical
T2 construct: purchased Inspiralis
Protocol: as §5

S. aureus [15] = test: Modified disk diffusion, inhibition zone; conditions: S. aureus (G+)
A. flavus [16] = test: Modified disk diffusion, inhibition zone; conditions: A. flavus (fungi)
C. albicans [17] = test: Modified disk diffusion, inhibition zone; conditions: C. albicans (fungi)
DNA gyrase = target: DNA gyrase; set-up: method as in PMID 31711767; conditions: cited from earlier work
tested fungal species = test: MIC summarised over the tested fungal species (abstract); type: cell-based; conditions: range over tested fungal species
[18] = tested on: A. flavus and C. albicans; test: Disk diffusion, inhibition zones summarised over the fungal species; conditions: against A. flavus and C. albicans
[19] = tested on: Gram-positive and Gram-negative bacterial strains; set-up: method as in ref 29 = [29]; Ghaly M. A.; El-Bendary E. R.; Shehata I. A.; Bayomi S. M.; Habib E. Synthesis, antimicrobial activity, DNA-binding affinity and molecular docking of certain 1, 2, 4-triazolo [1, 5-a] pyrimidines; conditions: cited from earlier work
[20] = target: DNA, Gram-positive strains; set-up: method as in ref 29 = [29]; Ghaly M. A.; El-Bendary E. R.; Shehata I. A.; Bayomi S. M.; Habib E. Synthesis, antimicrobial activity, DNA-binding affinity and molecular docking of certain 1, 2, 4-triazolo [1, 5-a] pyrimidines; conditions: cited from earlier work
[21] = target: DNA, Gram-negative strains; set-up: method as in ref 29 = [29]; Ghaly M. A.; El-Bendary E. R.; Shehata I. A.; Bayomi S. M.; Habib E. Synthesis, antimicrobial activity, DNA-binding affinity and molecular docking of certain 1, 2, 4-triazolo [1, 5-a] pyrimidines; conditions: cited from earlier work
[22] = target: S. aureus topoisomerase IV; set-up: method as in ref 44 (a number printed in a supplementary file, which may have a reference list of its own: not looked up in the article's list); conditions: internal standard value given in the method; cited from earlier work
[23] = Bacillus subtilis, read-out: MIC
[24] = Staphylococcus aureus, read-out: MIC
[25] = Escherichia coli, read-out: MIC
[26] = Pseudomonas aeruginosa, read-out: MIC
[27] = Bacillus subtilis, read-out: MBC
[28] = Staphylococcus aureus, read-out: MBC
[29] = Escherichia coli, read-out: MBC
[30] = Pseudomonas aeruginosa, read-out: MBC
[31] = Aspergillus flavus, read-out: MIC
[32] = Candida albicans, read-out: MIC

T2 sequence (P0ABQ4 whole entry): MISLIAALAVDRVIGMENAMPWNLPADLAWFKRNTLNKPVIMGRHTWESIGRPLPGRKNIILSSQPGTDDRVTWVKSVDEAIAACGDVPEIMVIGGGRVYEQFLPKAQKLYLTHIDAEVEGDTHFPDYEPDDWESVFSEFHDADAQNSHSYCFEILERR

SMILES | MIC (B. subtilis [1]; [23]) [µM] | MIC (S. aureus [2]; [24]) [µM] | MIC (E. coli [3]; [25]) [µM] | MIC (P. aeruginosa [4]) [µM] | MIC (P. aeruginosa [4]; [26]) [µM] | MBC (B. subtilis [5]; [27]) [µM] | MBC (S. aureus [6]; [28]) [µM] | MBC (E. coli [7]) [µM] | MBC (E. coli [7]; [29]) [µM] | MBC (P. aeruginosa [8]) [µM] | MBC (P. aeruginosa [8]; [30]) [µM] | Inhibition Zone (IZ) Diameter (B. subtilis [9]) [mm/mL] | Inhibition Zone (IZ) Diameter (E. coli [10]) [mm/mL] | Inhibition Zone (IZ) Diameter (P. aeruginosa [11]) [mm/mL] | Inhibition Zone (IZ) Diameter [12] | MIC (A. flavus [13]; [31]) [µM] | MIC (C. albicans [14]; [32]) [µM] | Inhibition Zone (IZ) Diameter (A. flavus [16]) [mm/mL] | other results
O=C(O)c1cn(C2CC2)c2cc(N3CCNCC3)c(F)cc2c1=O [Ciprofloxacin, reference compound] | 0.01 (≈ 0.00331 µg/mL) | 0.03 ± 0.002 (≈ 0.00994 µg/mL) | 0.06 ± 0.004 (≈ 0.0199 µg/mL) | 0.06 ± 0.005 (≈ 0.0199 µg/mL) | 0.06 (≈ 0.0199 µg/mL) | 0.019 (≈ 0.0063 µg/mL) | 0.046 (≈ 0.0152 µg/mL) | 0.09 ± 0.006 (≈ 0.0298 µg/mL) | 0.09 (≈ 0.0298 µg/mL) | 0.09 ± 0.006 (≈ 0.0298 µg/mL) | 0.09 (≈ 0.0298 µg/mL) | 40 | 40 | 40 | 40 mm | – | – | – | MIC (B. subtilis [1]): 0.01 ± 0.001 µM (≈ 0.00331 µg/mL); MBC (B. subtilis [5]): 0.019 ± 0.001 µM (≈ 0.0063 µg/mL); MBC (S. aureus [6]): 0.045 ± 0.002 µM (≈ 0.0149 µg/mL); MIC (tested bacteria): 10 to 90 µM (≈ 3.31 to 29.8 µg/mL); MBC (Gram-positive bacteria): 0.019 to 0.045 µM (≈ 0.0063 to 0.0149 µg/mL)
COc1ccc(-c2cc(-c3ccc(C)cc3)n3nc(-c4ccccc4)nc3n2)cc1 [Compound 9o, 5-(4-Methoxyphenyl)-2-phenyl-7-p-tolyl-1,2,4-triazolo[1,5-a]pyrimidine] | 0.016 (≈ 0.00628 µg/mL) | 0.024 (≈ 0.00942 µg/mL) | 0.051 (≈ 0.02 µg/mL) | 0.053 ± 0.004 (≈ 0.0208 µg/mL) | 0.053 (≈ 0.0208 µg/mL) | 0.032 (≈ 0.0126 µg/mL) | 0.046 (≈ 0.0181 µg/mL) | 0.087 ± 0.006 (≈ 0.0341 µg/mL) | 0.087 (≈ 0.0341 µg/mL) | 0.084 ± 0.005 (≈ 0.033 µg/mL) | 0.084 (≈ 0.033 µg/mL) | 43 | 43 | 42 | 42–45 mm | 15.5 (≈ 6.08 µg/mL) | 19.5 (≈ 7.65 µg/mL) | 35 | MIC (B. subtilis [1]): 0.016 ± 0.001 µM (≈ 0.00628 µg/mL); times less effective than ciprofloxacin (MIC) (B. subtilis [1]): 1.6; MIC (S. aureus [2]): 0.024 ± 0.001 µM (≈ 0.00942 µg/mL); MIC (E. coli [3]): 0.051 ± 0.003 µM (≈ 0.02 µg/mL); MBC (B. subtilis [5]): 0.032 ± 0.002 µM (≈ 0.0126 µg/mL); folds less potent than ciprofloxacin as a bactericidal agent (MBC) (B. subtilis [5]): 1.7; MBC (S. aureus [6]): 0.046 ± 0.002 µM (≈ 0.0181 µg/mL); MIC (A. flavus [13]): 15.50 ± 1 µM (≈ 6.08 µg/mL); MIC (C. albicans [14]): 19.50 ± 1 µM (≈ 7.65 µg/mL); IC50 (E. coli DNA gyrase): 0.182 ± 0.01 µM; IC50 (DHFR E. coli): 3.9 ± 0.1 µM; Inhibition Zone (IZ) Diameter (S. aureus [15]): 45; Inhibition Zone (IZ) Diameter (C. albicans [17]): 38 mm
COc1ccc(-c2cc(-c3ccc(OC)cc3)n3nc(-c4ccccc4)nc3n2)cc1 [Compound 9p, 5,7-Bis(4-methoxyphenyl)-2-phenyl-1,2,4-triazolo[1,5-a]pyrimidine] | 0.035 ± 0.002 (≈ 0.0143 µg/mL) | 0.069 (≈ 0.0282 µg/mL) | 0.069 ± 0.004 (≈ 0.0282 µg/mL) | 0.068 ± 0.005 (≈ 0.0278 µg/mL) | 0.068 (≈ 0.0278 µg/mL) | 0.052 ± 0.003 (≈ 0.0212 µg/mL) | 0.069 ± 0.003 (≈ 0.0282 µg/mL) | 0.097 ± 0.006 (≈ 0.0396 µg/mL) | 0.097 (≈ 0.0396 µg/mL) | 0.098 ± 0.006 (≈ 0.04 µg/mL) | 0.098 (≈ 0.04 µg/mL) | 38 | 37 | 38 | approximately 38 mm | 19.9 ± 1 (≈ 8.13 µg/mL) | 23.7 ± 1 (≈ 9.68 µg/mL) | 30 | MIC (S. aureus [2]): 0.037 ± 0.002 µM (≈ 0.0151 µg/mL); IC50 (E. coli DNA gyrase): 0.205 ± 0.013 µM; IC50 (DHFR E. coli): 5.4 ± 0.2 µM; Inhibition Zone (IZ) Diameter (S. aureus [15]): 39; Inhibition Zone (IZ) Diameter (C. albicans [17]): 31 mm
O=C(NNC(=O)c1c[nH]c2ncnn2c1=O)c1ccccc1 [Compound IV] | – | – | – | – | – | – | – | – | – | – | – | – | – | – | – | – | – | – | IC50 (DNA gyrase): 0.68 µM
OC(Cn1cncn1)(Cn1cncn1)c1ccc(F)cc1F [Fluconazole, reference compound] | – | – | – | – | – | – | – | – | – | – | – | – | – | – | – | 11.5 (≈ 3.52 µg/mL) | 17.5 (≈ 5.36 µg/mL) | 40 | MIC (A. flavus [13]): 11.50 ± 1 µM (≈ 3.52 µg/mL); MIC (C. albicans [14]): 17.50 ± 1 µM (≈ 5.36 µg/mL); MIC (tested fungal species): 11.5 to 17.5 µM (≈ 3.52 to 5.36 µg/mL); Inhibition Zone (IZ) Diameter [18]: 40 mm
COc1ccc(CCc2nc3[nH]cc(C(=O)NN)c(=O)n3n2)cc1OC [IIIa] | – | – | – | – | – | – | – | – | – | – | – | – | – | – | – | – | – | – | MIC [19]: ≥ 2 mg/L; IC50, DNA displacement experiment [20]: 61 mg/L (≈ 170 µM); IC50, DNA displacement experiment [21]: 40 mg/L (≈ 112 µM)
NNC(=O)c1c[nH]c2nc(N3CCCC3)nn2c1=O [IIIb] | – | – | – | – | – | – | – | – | – | – | – | – | – | – | – | – | – | – | MIC [19]: ≥ 2 mg/L; IC50, DNA displacement experiment [20]: 61 mg/L (≈ 232 µM); IC50, DNA displacement experiment [21]: 40 mg/L (≈ 152 µM)
CO[C@@H]1[C@@H](OC(N)=O)[C@@H](O)[C@H](Oc2ccc3c(O)c(NC(=O)c4ccc(O)c(CC=C(C)C)c4)c(=O)oc3c2C)OC1(C)C [Novobiocin] | – | – | – | – | – | – | – | – | – | – | – | – | – | – | – | – | – | – | IC50 [22]: 26.7 µM
